According to patent US12357631B2 (priority 2018, dated 2025):

biological target: PB2 (Influenza A virus, UniProt P03428); test: biochemical; assay type: binding
Sequence (P03428 whole entry, looked up): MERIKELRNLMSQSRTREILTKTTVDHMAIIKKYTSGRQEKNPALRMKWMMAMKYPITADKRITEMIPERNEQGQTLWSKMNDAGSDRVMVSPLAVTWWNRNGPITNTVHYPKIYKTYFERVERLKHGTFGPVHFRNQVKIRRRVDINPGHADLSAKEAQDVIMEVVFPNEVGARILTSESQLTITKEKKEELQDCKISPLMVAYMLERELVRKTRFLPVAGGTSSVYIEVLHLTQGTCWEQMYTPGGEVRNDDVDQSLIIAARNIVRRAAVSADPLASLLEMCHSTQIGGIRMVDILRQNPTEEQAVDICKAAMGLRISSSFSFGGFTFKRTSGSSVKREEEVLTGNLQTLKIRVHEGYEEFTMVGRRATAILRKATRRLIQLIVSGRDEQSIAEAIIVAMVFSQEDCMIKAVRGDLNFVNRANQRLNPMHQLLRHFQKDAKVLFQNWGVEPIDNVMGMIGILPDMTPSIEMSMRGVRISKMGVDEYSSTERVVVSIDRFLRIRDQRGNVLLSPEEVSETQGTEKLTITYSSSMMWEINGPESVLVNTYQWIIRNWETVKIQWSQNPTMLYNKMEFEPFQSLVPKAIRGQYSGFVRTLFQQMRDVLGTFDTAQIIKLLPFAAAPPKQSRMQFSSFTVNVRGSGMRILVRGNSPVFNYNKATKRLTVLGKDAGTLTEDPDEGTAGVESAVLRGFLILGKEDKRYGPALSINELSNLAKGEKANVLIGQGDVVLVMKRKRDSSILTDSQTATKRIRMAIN

| SMILES | EC50 |
| --- | --- |
| CCOCCOCc1cc(-c2ccnc(C(=O)N[C@H]3CCC[C@@H](Nc4nc(-c5c[nH]c6ncc(F)cc56)ncc4F)C3)c2)ccc1F [Compound A113] | > 100 µM |
| CC(C)NCCNC(=O)OCc1ccnc(C(=O)N[C@H]2CCC[C@@H](Nc3nc(-c4c[nH]c5ncc(F)cc45)ncc3F)C2)c1 [Compound A116] | 5 to 25 µM |
| O=C(O)CCCN1CCC[C@H](Nc2nc(-c3c[nH]c4ncc(F)cc34)ncc2F)C1 [Compound C7] | 5 to 25 µM |
| O=C(N[C@H]1CCC[C@@H](Nc2nc(-c3c[nH]c4ncc(F)cc34)ncc2F)C1)N1CCc2ccccc2C1 [Compound A2] | > 100 µM |
| CCOCCOCCCC1CCCN(C(=O)N[C@@H]2CCC[C@H](Nc3nc(-c4c[nH]c5ncc(F)cc45)ncc3F)C2)C1 (stereo partly drawn) [Compound A4] | 50 to 100 µM |
| CCCCCOCCCc1ccnc(C(=O)N[C@@H]2CCC[C@H](Nc3nc(-c4c[nH]c5ncc(F)cc45)ncc3F)C2)c1 [Compound A27] | > 100 µM |
| CCOCCOCCCc1ccnc(C(=O)N[C@H]2CCC[C@@H](Nc3nc(-c4c[nH]c5ncc(F)cc45)ncc3F)C2)c1 [Compound A24] | 50 to 100 µM |
| NCCOCCOCCOCCNC(=O)N[C@@H]1CCC[C@H](Nc2nc(-c3c[nH]c4ncc(F)cc34)ncc2F)C1 [Compound A170] | > 100 µM |
| O=C(NCc1cccc(F)c1)OCc1ccnc(C(=O)N[C@H]2CCC[C@@H](Nc3nc(-c4c[nH]c5ncc(F)cc45)ncc3F)C2)c1 [Compound A125] | > 100 µM |
| O=C(NCCc1ccc(Oc2ccccc2)cc1)OCc1ccnc(C(=O)N[C@H]2CCC[C@@H](Nc3nc(-c4c[nH]c5ncc(F)cc45)ncc3F)C2)c1 [Compound A100] | > 100 µM |
| CCOCCOCCCCCN(Cc1ccncc1)C(=O)N[C@H]1CCC[C@@H](Nc2nc(-c3c[nH]c4ncc(F)cc34)ncc2F)C1 [Compound A208] | > 100 µM |
| CCCCCOCCOCC(=O)N[C@H]1CCC[C@@H](Nc2nc(-c3c[nH]c4ncc(F)cc34)ncc2F)C1 [Compound A277] | > 100 µM |
| O=COCCOCCNC(=O)OCc1ccnc(C(=O)N[C@H]2CCC[C@@H](Nc3nc(-c4c[nH]c5ncc(F)cc45)ncc3F)C2)c1 [Compound A115] | < 5 µM |
| NCCOCCOCCOCC(=O)N[C@@H]1CCC[C@H](Nc2nc(-c3c[nH]c4ncc(F)cc34)ncc2F)C1 [Compound A267] | 25 to 50 µM |
| CCOc1ccccc1OCCCCCN(C)C(=O)N[C@H]1CCC[C@@H](Nc2nc(-c3c[nH]c4ncc(F)cc34)ncc2F)C1 [Compound A225] | > 100 µM |
| O=C(NCc1ccccc1F)OCc1ccnc(C(=O)N[C@H]2CCC[C@@H](Nc3nc(-c4c[nH]c5ncc(F)cc45)ncc3F)C2)c1 [Compound A124] | > 100 µM |
| CCOc1ccccc1OCCCc1ccnc(C(=O)N[C@@H]2CCC[C@H](Nc3nc(-c4c[nH]c5ncc(F)cc45)ncc3F)C2)c1 [Compound A29] | > 100 µM |
| CCOCCOCCCC1CCN(C(=O)N[C@@H]2CCC[C@H](Nc3nc(-c4c[nH]c5ncc(F)cc45)ncc3F)C2)C1 (stereo partly drawn) [Compound A7] | 5 to 25 µM |
| CCOCCOCCCCCN(CC(=O)O)C(=O)N[C@@H]1CCC[C@H](Nc2nc(-c3c[nH]c4ncc(F)cc34)ncc2F)C1 [Compound A202] | 5 to 25 µM |
| Cc1ccc(C(=O)N[C@H]2CCC[C@@H](Nc3nc(-c4c[nH]c5ncc(F)cc45)ncc3F)C2)cn1 [Compound A56] | < 5 µM |
| CCOCc1cccc(COCCNC(=O)N[C@@H]2CCC[C@H](Nc3nc(-c4c[nH]c5ncc(F)cc45)ncc3F)C2)c1 [Compound A187] | 50 to 100 µM |

| SMILES | EC50 |
| --- | --- |
| CCOCCOc1cccc(CC(=O)N[C@@H]2CCC[C@H](Nc3nc(-c4c[nH]c5ncc(F)cc45)ncc3F)C2)c1 [Compound A273] | 50 to 100 µM |
| CCOCCOCCCCCN(Cc1ccccn1)C(=O)N[C@@H]1CCC[C@H](Nc2nc(-c3c[nH]c4ncc(F)cc34)ncc2F)C1 [Compound A207] | 50 to 100 µM |
| CCOCCOCCOCCN(Cc1ccccc1)C(=O)N[C@@H]1CCC[C@H](Nc2nc(-c3c[nH]c4ncc(F)cc34)ncc2F)C1 [Compound A176] | > 100 µM |
| CCOCc1cccc(COCC(=O)N[C@@H]2CCC[C@H](Nc3nc(-c4c[nH]c5ncc(F)cc45)ncc3F)C2)c1 [Compound A275] | > 100 µM |
| CCCCCOCCCCCN(C)C(=O)N[C@@H]1CCC[C@H](Nc2nc(-c3c[nH]c4ncc(F)cc34)ncc2F)C1 [Compound A201] | > 100 µM |
| CCCCCCOCCCCN(C)C(=O)N[C@H]1CCC[C@@H](Nc2nc(-c3c[nH]c4ncc(F)cc34)ncc2F)C1 [Compound A205] | > 100 µM |
| CCOCCCCCCCCN(C)C(=O)N[C@H]1CCC[C@@H](Nc2nc(-c3c[nH]c4ncc(F)cc34)ncc2F)C1 [Compound A211] | > 100 µM |
| O=C(N[C@H]1CCC[C@@H](Nc2nc(-c3c[nH]c4ncc(F)cc34)ncc2F)C1)c1cc2ccccc2cn1 [Compound A46] | > 100 µM |
| CCCCc1ccc(C(=O)N[C@@H]2CCC[C@H](Nc3nc(-c4c[nH]c5ncc(F)cc45)ncc3F)C2)nc1 [Compound A58] | 50 to 100 µM |
| CCOCCCCCOCCNC(=O)N[C@H]1CCC[C@@H](Nc2nc(-c3c[nH]c4ncc(F)cc34)ncc2F)C1 [Compound A192] | > 100 µM |
| CCCOCCCCCCCN(C)C(=O)N[C@@H]1CCC[C@H](Nc2nc(-c3c[nH]c4ncc(F)cc34)ncc2F)C1 [Compound A236] | 50 to 100 µM |
| CCOCCOCc1cccc(-c2ccnc(C(=O)N[C@H]3CCC[C@@H](Nc4nc(-c5c[nH]c6ncc(F)cc56)ncc4F)C3)c2)c1 [Compound A90] | 50 to 100 µM |
| CCOCc1ccnc(C(=O)N[C@H]2CCC[C@@H](Nc3nc(-c4c[nH]c5ncc(F)cc45)ncc3F)C2)c1 [Compound A43] | 5 to 25 µM |
| CCOCCOCCOCCNC(=O)N[C@H]1CCC[C@@H](Nc2nc(-c3ccnc(Cl)c3)ncc2F)C1 [Compound A197] | > 100 µM |
| CN(CCCCCOCCOCc1ccccc1)C(=O)N[C@H]1CCC[C@@H](Nc2nc(-c3c[nH]c4ncc(F)cc34)ncc2F)C1 [Compound A221] | > 100 µM |
| O=C(COCCOCCOCCO)N[C@@H]1CCC[C@H](Nc2nc(-c3c[nH]c4ncc(F)cc34)ncc2F)C1 [Compound A265] | 5 to 25 µM |
| CCOCCOCCOCCNC(=O)N[C@@H]1CCC[C@H](Nc2nc(-c3c[nH]c4ncc(F)cc34)ncc2F)C1 [Compound A168] | 5 to 25 µM |
| CN(CCOCCOCCOCCN)C(=O)N[C@@H]1CCC[C@H](Nc2nc(-c3c[nH]c4ncc(F)cc34)ncc2F)C1 [Compound A173] | 50 to 100 µM |
| CCCCCCCCCCCNC(=O)N[C@@H]1CCC[C@H](Nc2nc(-c3c[nH]c4ncc(F)cc34)ncc2F)C1 [Compound A174] | 50 to 100 µM |
| CCOCCCc1cccc(CCN(C)C(=O)N[C@H]2CCC[C@@H](Nc3nc(-c4c[nH]c5ncc(F)cc45)ncc3F)C2)c1 [Compound A220] | 50 to 100 µM |
| CCOc1cccc(-c2ccnc(C(=O)N[C@H]3CCC[C@@H](Nc4nc(-c5c[nH]c6ncc(F)cc56)ncc4F)C3)c2)c1 [Compound A52] | > 100 µM |

| SMILES | EC50 |
| --- | --- |
| CCOCCOCCOCCNC(=O)N(Cc1ccccc1)[C@@H]1CCC[C@H](Nc2nc(-c3c[nH]c4ncc(F)cc34)ncc2F)C1 [Compound B1] | > 100 µM |
| CCOc1ccccc1OCCCCCN(C)C(=O)N[C@@H]1CCC[C@H](Nc2nc(-c3c[nH]c4ncc(F)cc34)ncc2F)C1 [Compound A216] | > 100 µM |
| O=C(N[C@@H]1CCC[C@H](Nc2nc(-c3c[nH]c4ncc(F)cc34)ncc2F)C1)c1cc(COCCCCCOCc2ccc(F)cc2)ccn1 [Compound A95] | > 100 µM |
| O=C(NCC1CCCO1)OCc1ccnc(C(=O)N[C@H]2CCC[C@@H](Nc3nc(-c4c[nH]c5ncc(F)cc45)ncc3F)C2)c1 (stereo partly drawn) [Compound A106] | 5 to 25 µM |
| CCOc1ccc(C(C)NC(=O)OCc2ccnc(C(=O)N[C@H]3CCC[C@@H](Nc4nc(-c5c[nH]c6ncc(F)cc56)ncc4F)C3)c2)cc1 (stereo partly drawn) [Compound A145] | > 100 µM |
| CCNC(=O)C(NC(=O)OCc1ccnc(C(=O)N[C@H]2CCC[C@@H](Nc3nc(-c4c[nH]c5ncc(F)cc45)ncc3F)C2)c1)C(C)(C)C (stereo partly drawn) [Compound A149] | > 100 µM |
| O=C(N[C@H]1CCC[C@@H](Nc2nc(-c3c[nH]c4ncc(F)cc34)ncc2F)C1)N1Cc2ccccc2C1 [Compound A3] | 5 to 25 µM |
| CCOCCOCCCCCN(C(=O)N[C@H]1CCC[C@@H](Nc2nc(-c3c[nH]c4ncc(F)cc34)ncc2F)C1)C(C)C [Compound A214] | > 100 µM |
| O=C(O)CNCCNC(=O)OCc1ccnc(C(=O)N[C@@H]2CCC[C@H](Nc3nc(-c4c[nH]c5ncc(F)cc45)ncc3F)C2)c1 [Compound A110] | 5 to 25 µM |
| CCOCCOc1cccc(CCNC(=O)N[C@@H]2CCC[C@H](Nc3nc(-c4c[nH]c5ncc(F)cc45)ncc3F)C2)c1 [Compound A178] | > 100 µM |
| CCCOCCCCCCCN(C)C(=O)N[C@@H]1CCC[C@H](Nc2nc(-c3c[nH]c4ncc(F)cc34)ncc2F)C1 [Compound A199] | > 100 µM |
| CCOCc1cccc(COCCN(C)C(=O)N[C@@H]2CCC[C@H](Nc3nc(-c4c[nH]c5ncc(F)cc45)ncc3F)C2)c1 [Compound A184] | > 100 µM |
| COC(=O)N[C@H]1CCC[C@@H](Nc2nc(-c3c[nH]c4ncc(F)cc34)ncc2F)C1 [Compound A286] | 25 to 50 µM |
| CCOCCOCCCCCN(CC(N)=O)C(=O)N[C@@H]1CCC[C@H](Nc2nc(-c3c[nH]c4ncc(F)cc34)ncc2F)C1 [Compound A210] | 50 to 100 µM |
| COCCOCCCCCCN(C)C(=O)N[C@H]1CCC[C@@H](Nc2nc(-c3c[nH]c4ncc(F)cc34)ncc2F)C1 [Compound A244] | > 100 µM |
| O=C(NCC(O)CO)OCc1ccnc(C(=O)N[C@H]2CCC[C@@H](Nc3nc(-c4c[nH]c5ncc(F)cc45)ncc3F)C2)c1 (stereo partly drawn) [Compound A99] | < 5 µM |
| O=C(N[C@@H]1CCC[C@H](Nc2nc(-c3c[nH]c4ncc(F)cc34)ncc2F)C1)c1cncc(-c2ccccc2)c1 [Compound A67] | > 100 µM |
| CCOCCOCCCCCN(C(=O)N[C@@H]1CCC[C@H](Nc2nc(-c3c[nH]c4ncc(Cl)cc34)ncc2Cl)C1)C(C)C [Compound A249] | > 100 µM |
| CCOCCOCCOCCNC(=O)N(CCCc1ccccc1)[C@@H]1CCC[C@H](Nc2nc(-c3c[nH]c4ncc(F)cc34)ncc2F)C1 [Compound B3] | 50 to 100 µM |
| O=C(NCc1ccncc1)OCc1ccnc(C(=O)N[C@H]2CCC[C@@H](Nc3nc(-c4c[nH]c5ncc(F)cc45)ncc3F)C2)c1 [Compound A108] | 5 to 25 µM |
| O=C(N[C@@H]1CCC[C@H](Nc2nc(-c3c[nH]c4ncc(F)cc34)ncc2F)C1)c1cc(CCCOCCOCc2ccccc2)ccn1 [Compound A34] | > 100 µM |
